# Activity calls are given as the source filed them. How the calls were made is not given here.
# Tested on: rodent carcinogenicity bioassays, tumor incidence
# Test: CCRIS carcinogenicity studies
# Procedure, shortened: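 NCI-built, expert-reviewed records of carcinogenicity and related test outcomes (mutagenicity, tumor promotion/inhibition) compiled from published and report sources, historical span 1985-2011, not updated.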
smiles,measurement,setting,value
CN=[N+](C)[O-],carcinogen call,"Species: MOUSE, Strain/Sex: A/J/MALE,FEMALE, Route: INTRAPERITONEAL INJECTION, Dose: 5, 10 MG/KG BW ONCE A WEEK FOR 4 WKS, Tumor Site: Type of Lesion: COLON: TUMORS (ADENOMA), % OF TUMOR BEARING MICE WAS 10X HIGHER IN 10 MG/KG GROUP",active; positive; all animals given 20 mg/kg died
same,carcinogen call,"Species: MOUSE, Strain/Sex: A/J/MALE,FEMALE, Route: INTRAPERITONEAL INJECTION, Dose: 10 MG/KG ONCE WEEKLY FOR 2, 4, 8 WKS, Tumor Site: Type of Lesion: COLON: ADENOMA",active; positive; response of approximately 25% with 2 doses to almost 100% at 4 or 8 d
same,carcinogen call,"Species: MOUSE, Strain/Sex: A/J/MALE,FEMALE, Route: SUBCUTANEOUS INJECTION, Dose: 10 MG/KG BW ONCE A WK FOR 4 WK, Tumor Site: Type of Lesion: COLON: ADENOMA",active; positive; almost 80% incidence
same,carcinogen call,"Species: MOUSE, Strain/Sex: AKR/J/MALE,FEMALE, Route: INTRAPERITONEAL INJECTION, Dose: 10 MG/KG BW WEEKLY FOR 2, 4, 8 WKS (STUDY DURATION: 6 MO), Tumor Site: Type of Lesion: COLON: ADENOMAS",only 5% of animals at 4 wk treatment developed tumors
same,carcinogen call,"Species: MOUSE, Strain/Sex: AKR/J/MALE,FEMALE, Route: SUBCUTANEOUS, Dose: 10 MG/KG BW WEEKLY FOR 4 WK (STUDY DURATION: 6 MO), Tumor Site: Type of Lesion: COLON: ADENOMA",only about 5% developed tumors
same,carcinogen call,"Species: MOUSE, Strain/Sex: ICR/MALE, Route: SUBCUTANEOUS, Dose: 0, 0.3 MG/MOUSE IN SALINE 1/WK FOR 20 WK (STUDY DURATION: 36 WK), Tumor Site: Type of Lesion: COLON: ADENOMA OR ADENOCARCINOMA, ADENOMA OR ADENOCARCINOMA OR CARCINOMA, RECTUM: CARCINOMA, BLOOD VESSELS: ANGIOMA OR A, Tumor Site: Type of Lesion: COLON: ADENOMA OR ADENOCARCINOMA, ADENOMA OR ADENOCARCINOMA OR CARCINOMA, RECTUM: CARCINOMA, BLOOD VESSELS: ANGIOMA OR A",active; positive
same,carcinogen call,"Species: MOUSE, Strain/Sex: SWR/J/MALE,FEMALE, Route: INTRAPERITONEAL INJECTION, Dose: 10 MG/KG BW FOR 2, 4, OR 8 WKS, ONCE A WK (STUDY DURATION: 6 MO), Tumor Site: Type of Lesion: COLON: ADENOMA",active; positive- tumor incidence 30-100%
same,carcinogen call,"Species: MOUSE, Strain/Sex: SWR/J/MALE,FEMALE, Route: SUBCUTANEOUS INJECTION, Dose: 10 MG/KG BW ONCE A WK FOR 4 WK, Tumor Site: Type of Lesion: COLON: ADENOMA",active; positive; response about 30%
same,carcinogen call,"Species: RAT, Strain/Sex: F344/FEMALE, Route: INTRAVESICULAR, Dose: 0, 2 MG IN 0.2 ML ETHANOL: DEIONIZED WATER (1:3) 2/WK FOR 22 WK (TOTAL DOSE 1.2 MMOL) (STUDY DURATION: LIFESPAN), Tumor Site: Type of Lesion: COLON: TUMOR, ZYMBAL GLAND: TUMOR",active; positive
same,carcinogen call,"Species: RAT, Strain/Sex: F344/FEMALE, Route: SUBCUTANEOUS, Dose: 8 MG/KG 1/WK FOR 10 WK, Tumor Site: Type of Lesion: COLON: ADENOMA, CARCINOMA, ADENOCARCINOMA",active; positive
same,carcinogen call,"Species: RAT, Strain/Sex: F344/MALE, Route: ORAL, Dose: 0, 1.0, 4.0 MG/WK IN DRINKING WATER FOR 30 WK (STUDY DURATION: LIFETIME), Dose: 0, 1.0, 4.0 MG/WK IN DRINKING WATER FOR 30 WK (STUDY DURATION: LIFETIME), Tumor Site: Type of Lesion: LIVER: CARCINOMA, SARCOMA, KIDNEY: INTERSTITIAL CELL SARCOMA OR NEUROSARCOMA OR RENAL CARCINOMA, COLON: ADENOMA OR CARCI, Tumor Site: Type of Lesion: LIVER: CARCINOMA, SARCOMA, KIDNEY: INTERSTITIAL CELL SARCOMA OR NEUROSARCOMA OR RENAL CARCINOMA, COLON: ADENOMA OR CARCI",active; positive
same,carcinogen call,"Species: RAT, Strain/Sex: F344/MALE, Route: ORAL, Dose: 0, 10, 40 MG/ML IN A NEUTRAL DEIONIZED DRINKING WATER SOLUTION 5 D/WK FOR 30 WK (TOTAL DOSE 30; 120 MG) (STUDY DURATION:, Dose: 0, 10, 40 MG/ML IN A NEUTRAL DEIONIZED DRINKING WATER SOLUTION 5 D/WK FOR 30 WK (TOTAL DOSE 30; 120 MG) (STUDY DURATION:, Tumor Site: Type of Lesion: LIVER: CARCINOMA, HEMANGIOSARCOMA, KIDNEY: TUMOR, COLON: ADENOCARCINOMA, ADENOMA, Tumor Site: Type of Lesion: LIVER: CARCINOMA, HEMANGIOSARCOMA, KIDNEY: TUMOR, COLON: ADENOCARCINOMA, ADENOMA",active; positive
same,carcinogen call,"Species: RAT, Strain/Sex: SPRAGUE-DAWLEY/MALE, Route: SUBCUTANEOUS, Dose: 8 MG/KG 1/WK FOR 24 WK, Tumor Site: Type of Lesion: INTESTINES (LARGE AND SMALL): ADENOCARCINOMA",active; positive
same,carcinogen call,"Species: RAT, Strain/Sex: STRAIN-BD, Route: SUBCUTANEOUS, Dose: >6 MG/KG ONCE, Tumor Site: Type of Lesion: COLON: ADENOCARCINOMA, KIDNEY: NEPHROBLASTOMA",active; positive
same,carcinogen call,"Species: RAT, Strain/Sex: STRAIN-BD, Route: SUBCUTANEOUS, Dose: >6 MG/KG ONCE, Tumor Site: Type of Lesion: COLON: ADENOCARCINOMA, NERVOUS SYSTEM: NEUROBLASTOMA, KIDNEY: NEPHROBLASTOMA, Tumor Site: Type of Lesion: COLON: ADENOCARCINOMA, NERVOUS SYSTEM: NEUROBLASTOMA, KIDNEY: NEPHROBLASTOMA",active; positive
same,carcinogen call,"Species: RAT, Strain/Sex: WISTAR/MALE, Route: SUBCUTANEOUS, Dose: 0, 7.4 MG/KG IN 0.9% SALINE 1/WK FOR 10 WK ADMINISTERED TO RATS MAINTAINED ON NORMAL-PROTEIN (25% CASEIN), LOW-PROTEIN (, Tumor Site: Type of Lesion: COLON: TUMOR",active; positive
O=S(=O)([O-])[O-].[Ni+2],carcinogen call,"Species: MOUSE, Strain/Sex: B6C3F1/FEMALE, Route: INHALATION, Dose: 0, 0.25, 0.5, 1 MG/M3 6 HR/D 5 D/WK FOR 104 WK (STUDY DURATION: 105 WK), Dose: 0, 0.25, 0.5, 1 MG/M3 6 HR/D 5 D/WK FOR 104 WK (STUDY DURATION: 105 WK)",inactive; negative
same,carcinogen call,"Species: MOUSE, Strain/Sex: B6C3F1/MALE, Route: INHALATION, Dose: 0, 0.25, 0.5, 1 MG/M3 6 HR/D 5 D/WK FOR 104 WK (STUDY DURATION: 105 WK), Dose: 0, 0.25, 0.5, 1 MG/M3 6 HR/D 5 D/WK FOR 104 WK (STUDY DURATION: 105 WK)",inactive; negative
same,carcinogen call,"Species: RAT, Strain/Sex: F344/FEMALE, Route: INHALATION, Dose: 0, 0.12, 0.25, 0.5 MG/M3 6 HR/D 5 D/WK FOR 104 WK (STUDY DURATION: 105 WK), Dose: 0, 0.12, 0.25, 0.5 MG/M3 6 HR/D 5 D/WK FOR 104 WK (STUDY DURATION: 105 WK)",inactive; negative
same,carcinogen call,"Species: RAT, Strain/Sex: F344/MALE, Route: INHALATION, Dose: 0, 0.12, 0.25, 0.5 MG/M3 6 HR/D 5 D/WK FOR 104 WK (STUDY DURATION: 105 WK), Dose: 0, 0.12, 0.25, 0.5 MG/M3 6 HR/D 5 D/WK FOR 104 WK (STUDY DURATION: 105 WK)",inactive; negative
same,carcinogen call,"Species: RAT, Strain/Sex: F344/MALE, Route: INTRAMUSCULAR, Dose: 0, 63, 83, UMOL/KG GIVEN IN 14 INJECTIONS OVER 26 D (STUDY DURATION; 2 YR), Dose: 0, 63, 83, UMOL/KG GIVEN IN 14 INJECTIONS OVER 26 D (STUDY DURATION; 2 YR)",inactive; negative
same,carcinogen call,"Species: Rat, Strain/Sex: Fischer 344/Female (50/group), Route: Oral, Dose: 0, 10, 30, 50 mg/kg/day by gavage once daily for 104 wk, Dose: 0, 10, 30, 50 mg/kg/day by gavage once daily for 104 wk",inactive; negative
same,carcinogen call,"Species: Rat, Strain/Sex: Fischer 344/Male (50/group), Route: Oral, Dose: 0, 10, 30, 50 mg/kg/day by gavage once daily for 104 wk, Dose: 0, 10, 30, 50 mg/kg/day by gavage once daily for 104 wk",inactive; negative
Cc1cc(Cl)ccc1OCC(=O)O,carcinogen call,"Species: MOUSE, Strain/Sex: B6C3F1/FEMALE, Route: ORAL, Dose: 0, 20, 100, 500 PPM IN DIET FOR 104 WK (STUDY DURATION: 104 WK), Dose: 0, 20, 100, 500 PPM IN DIET FOR 104 WK (STUDY DURATION: 104 WK)",inactive; negative
same,carcinogen call,"Species: MOUSE, Strain/Sex: B6C3F1/MALE, Route: ORAL, Dose: 0, 20, 100, 500 PPM IN DIET FOR 104 WK (STUDY DURATION: 104 WK), Dose: 0, 20, 100, 500 PPM IN DIET FOR 104 WK (STUDY DURATION: 104 WK)",inactive; negative
same,carcinogen call,"Species: NEWT, Route: IMMERSION, Dose: 0, 100, 200, 400 PPM 4 D/WK FOR 12 MO (STUDY DURATION: 24 MO), Dose: 0, 100, 200, 400 PPM 4 D/WK FOR 12 MO (STUDY DURATION: 24 MO)",inactive; negative
same,carcinogen call,"Species: RAT, Strain/Sex: WISTAR/FEMALE, Route: ORAL, Dose: 0, 20, 80, 320 PPM IN DIET FOR 104 WK (STUDY DURATION: 104 WK), Dose: 0, 20, 80, 320 PPM IN DIET FOR 104 WK (STUDY DURATION: 104 WK)",inactive; negative
same,carcinogen call,"Species: RAT, Strain/Sex: WISTAR/MALE, Route: ORAL, Dose: 0, 20, 80, 320 PPM IN DIET FOR 104 WK (STUDY DURATION: 104 WK), Dose: 0, 20, 80, 320 PPM IN DIET FOR 104 WK (STUDY DURATION: 104 WK)",inactive; negative

# Reference: PubChem BioAssay AID1259411 (Chemical Carcinogenesis Research Information System (CCRIS), 2018)
